Patent US20240124478A1, “SPIROCYCLIC-SUBSTITUTED 6,7-DIHYDRO-PYRANO[2,3-d]PYRIMIDINE INHIBITORS OF KRAS G12C MUTANT” (Merck Sharp & Dohme LLC, priority 2020, published 2024)
Like-named read-outs stand apart in the source and are kept apart here.

Legend:
[1] = target: recombinant biotinylated KRAS protein containing G12C/C51S/C80L/C118S mutations (Biotinylated KRAS G12C protein) (Homo sapiens (Human), UniProt P01116, C118S/C51S/C80L/G12C); test: SOS-catalyzed nucleotide exchange assay (TR-FRET); assay type: biochemical; details: apparent potency; preincubation time of 60 minutes prior to addition of SOS
recombinant biotinylated KRAS protein containing G12C/C51S/C80L/C118S mutations (Biotinylated KRAS G12C protein), sequence (P01116 other isoform, or with tags, fused parts or gaps, stated change not applied): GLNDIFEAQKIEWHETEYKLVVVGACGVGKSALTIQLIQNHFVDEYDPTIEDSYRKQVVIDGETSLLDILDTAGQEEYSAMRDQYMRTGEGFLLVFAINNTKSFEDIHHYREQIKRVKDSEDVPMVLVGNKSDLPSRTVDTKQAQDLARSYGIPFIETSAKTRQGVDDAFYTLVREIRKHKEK
Procedure: The SOS-catalyzed nucleotide exchange assay utilizes a preformed complex of recombinant biotinylated KRAS protein containing G12C/C51S/C80L/C118S mutations (183 amino acids; biotin on K10; leader sequence which is an AviTag; referred to as SEQ ID NO: 1 or “Biotinylated KRAS G12C protein” hereafter), Bodipy-GDP, and Terbium-streptavidin. Compounds are added to this complex and then after 60 minutes incubation time, the mixture is treated with recombinant SOS protein and unlabeled GTP. Small molecule inhibitors stabilize the Bodipy-GDP complex whereas the untreated protein rapidly exchanges Bodipy-GDP for unlabeled GTP resulting in reduced TR-FRET signal.
Biotinylated KRAS G12C protein (SEQ ID NO: 1) is diluted to 2 μM in an EDTA buffer (20 mM HEPES, 150 mM sodium chloride, 10 mM EDTA, and 0.01% Tween) and incubated at room temperature for one hour. This mixture is then further diluted to 90 nM in an assay buffer (20 mM HEPES, 150 mM sodium chloride, 10 mM magnesium chloride, and 0.005% Tween) containing 15 nM of Terbium-Streptavidin (Invitrogen, catalog #PV3577) and 900 nM of Bodipy-GDP and incubated at room temperature for six hours. This solution is referred to as Biotinylated KRAS G12C mixture.
Each test compound (10 mM stock in DMSO) is diluted in DMSO to make a 10-point, 3-fold dilution series in a 384-well low dead volume microplate (Labcyte, catalog #LP-0200). Once titrations are made, 10 nL of the diluted compounds is acoustically dispensed into a 384-well plate (Corning, catalog #3820) using an Echo 550 (Labcyte).
Each well of the plate receives 3 μL Biotinylated KRAS G12C mixture that had been incubating for six hours and 3 μL of assay buffer using a BioRAPTR (Beckman Coulter) and is incubated at room temperature for 60 minutes. Each well then receives 3 μL of 240 nM recombinant human SOS protein and 9 mM GTP (Sigma, G8877) in assay buffer and is incubated at room temperature for 60 minutes.
The time-resolved fluorescence resonance energy transfer signal of the plate is measured on an Envision (PerkinElmer) plate reader: Excitation filter=340 nm; emission1=495 nm; emission2=520 nm; dichroic mirror=D400/D505; delay time=100 μs. The signal of each well is determined as the ratio of the emission at 520 nm to that at 495 nm. Percent effect of each well is determined after normalization to control wells containing DMSO (no effect) or a saturating concentration of inhibitor (max effect). The apparent effect as a function of compound concentration is fit to a four parameter logistic equation.

NCI-H358 cells = test: Cellular phospho-ERK assay; assay type: cell-based; details: 2 hour incubation, ratio of p-Erk vs total Erk, read-out: IC50 (nM) pERK (Cell)
Procedure: NCI-H358 cells (ATCC® CRL-5807™) were cultured in T150 flask in growth medium (RPMI medium 1640-(ThermoFisher Scientific 61870) containing 10% fetal bovine serum (ThermoFisher Scientific 10091148)). The cells were harvested in growth medium after TrypLE (ThermoFisher scientific 12604021) digestion and were seeded in 384-well collagen coated cell culture plate (Corning 356702) at a density of 15,000 cells/well, and incubated at 37° C., 5% CO2 overnight. The compound dose-response titrations were prepared and appropriate amounts of compounds were dispensed in a 384-well intermediate plate using an Echo 550 liquid handler. RPMI medium 1640-GlutaMAX™-I were added to the intermediate plate and transferred to 384-well cell culture plate, which was incubated at 37° C., 5% CO2 for 2 hours. After removal of medium from the plate, cells were lysed in lysis buffer from SureFire® Ultra™ Multiplex p-Erk and total Erk assay kit (PerkinElmer MPSU-PTERK) containing Halt™ Protease and Phosphotase inhibitor cocktail (ThermoFisher Scientific 78446) at room temperature with constant shaking at 300 rpm for 30 minutes. The cell lysates were then transferred to OptiPlate-384 plate (PerkinElmer 6005620) and the phosphorylation of Erk and total Erk levels were detected by Alpha SureFire Ultra Multiplex p-Erk kit PerkinElmer MPSU-PTERK) following the manufacturer's protocol. Assay plates were read on an EnVision Multimode Plate Reader (PerkinElmer), and the ratio of p-Erk vs total Erk in each well was used as the final readout. Dose response curves were analyzed using a 4-parameter logistic model to calculate IC50 values using spotfire software.

SMILES	IC50 [1]	IC50 (NCI-H358 cells; Homo sapiens, NCI-H358, 2 h)	IC50 (NCI-H358 cells)
C=CC(=O)N1CCN(c2nc(OC[C@@H]3CCCN3C)nc3c2CCC2(CCCc4ccnc(O)c42)O3)C[C@@H]1CC#N (mixture of isomers) [Example 8, 2-((2S)-1-acryloyl-4-(1-hydroxy-2′-(((S)-1-methylpyrrolidin-2-yl)methoxy)-5′,6,6′,7-tetrahydro-5H-spiro[isoquinoline-8,7′-pyrano[2,3-d]pyrimidin]-4′-yl)piperazin-2-yl)acetonitrile]	990 nM	23400 nM	–
C=CC(=O)N1CCN(c2nc(OC[C@@H]3CCCN3C)nc3c2CCC2(CCCc4cccc(C)c42)O3)C[C@@H]1CC#N (single isomer, unassigned) [Example 1a]	6.37 nM	–	495 nM
C=CC(=O)N1CCN(c2nc(OC[C@@H]3CCCN3C)nc3c2CCC2(CCCc4cccc(C)c42)O3)C[C@@H]1CC#N (single isomer, unassigned) [Example 1b]	54.9 nM	–	2860 nM
C=CC(=O)N1CCN(c2nc(OC[C@@H]3CCCN3C)nc3c2CCC2(CCCc4ccccc42)O3)C[C@@H]1CC#N (single isomer, unassigned) [Example 2a]	13.7 nM	154 nM	–
C=CC(=O)N1CCN(c2nc(OC[C@@H]3CCCN3C)nc3c2CCC2(CCCc4ccccc42)O3)C[C@@H]1CC#N (single isomer, unassigned) [Example 2b]	14.7 nM	–	268 nM
C=CC(=O)N1CCN(c2nc(OC[C@@H]3CCCN3C)nc3c2CCC2(CCCc4c(F)cccc42)O3)C[C@@H]1CC#N (single isomer, unassigned) [Example 3a]	14.5 nM	–	506 nM
C=CC(=O)N1CCN(c2nc(OC[C@@H]3CCCN3C)nc3c2CCC2(CCCc4c(F)cccc42)O3)C[C@@H]1CC#N (single isomer, unassigned) [Example 3b]	51 nM	–	1120 nM
C=CC(=O)N1CCN(c2nc(OC[C@@H]3CCCN3C)nc3c2CCC2(CCc4ccccc42)O3)C[C@@H]1CC#N (single isomer, unassigned) [Example 4a]	14.9 nM	–	311 nM
C=CC(=O)N1CCN(c2nc(OC[C@@H]3CCCN3C)nc3c2CCC2(CCc4ccccc42)O3)C[C@@H]1CC#N (single isomer, unassigned) [Example 4b]	164 nM	–	2500 nM
C=CC(=O)N1CCN(c2nc(OCC[C@@H]3CCCN3C)nc3c2CCC2(CCCc4ccccc42)O3)C[C@@H]1CC#N (single isomer, unassigned) [Example 5a]	18.7 nM	–	1250 nM
C=CC(=O)N1CCN(c2nc(OCC[C@@H]3CCCN3C)nc3c2CCC2(CCCc4ccccc42)O3)C[C@@H]1CC#N (single isomer, unassigned) [Example 5b]	274 nM	–	5980 nM
C=CC(=O)N1CCN(c2nc(OC[C@@H]3CCCN3C)nc3c2CCC2(CCC(C)(C)c4ccccc42)O3)C[C@@H]1CC#N (single isomer, unassigned) [Example 6a]	181 nM	3100 nM	–
C=CC(=O)N1CCN(c2nc(OC[C@@H]3CCCN3C)nc3c2CCC2(CCC(C)(C)c4ccccc42)O3)C[C@@H]1CC#N (single isomer, unassigned) [Example 6b]	413 nM	–	4370 nM
C=CC(=O)N1CCN(c2nc(OC[C@@H]3CCCN3C)nc3c2CCC2(CCC(F)(F)c4ccccc42)O3)C[C@@H]1CC#N (single isomer, unassigned) [Example 7a]	77.3 nM	1620 nM	–
C=CC(=O)N1CCN(c2nc(OC[C@@H]3CCCN3C)nc3c2CCC2(CCC(F)(F)c4ccccc42)O3)C[C@@H]1CC#N (single isomer, unassigned) [Example 7b]	119 nM	–	2150 nM
C=CC(=O)N1CCN(c2nc(OC[C@@H]3CCCN3C)nc3c2CCC2(CCC(C)c4ccccc42)O3)C[C@@H]1CC#N (single isomer, unassigned) [Example 9a]	40.5 nM	–	1940 nM
C=CC(=O)N1CCN(c2nc(OC[C@@H]3CCCN3C)nc3c2CCC2(CCC(C)c4ccccc42)O3)C[C@@H]1CC#N (single isomer, unassigned) [Example 9b]	34.2 nM	–	1170 nM
C=CC(=O)N1CCN(c2nc(OC[C@@H]3CCCN3C)nc3c2CCC2(CCC(C)c4ccccc42)O3)C[C@@H]1CC#N (single isomer, unassigned) [Example 9c]	110 nM	–	1840 nM
C=CC(=O)N1CCN(c2nc(OC[C@@H]3CCCN3C)nc3c2CCC2(CCC(C)c4ccccc42)O3)C[C@@H]1CC#N (single isomer, unassigned) [Example 9d]	149 nM	–	2410 nM
C=CC(=O)N1CCN(c2nc(OC[C@@H]3CCCN3C)nc3c2CCC2(O3)c3ccccc3CCC2C)C[C@@H]1CC#N (single isomer, unassigned) [Example 10a]	145 nM	6640 nM	–
C=CC(=O)N1CCN(c2nc(OC[C@@H]3CCCN3C)nc3c2CCC2(O3)c3ccccc3CCC2C)C[C@@H]1CC#N (single isomer, unassigned) [Example 10b]	50 nM	–	4530 nM
C=CC(=O)N1CCN(c2nc(OC[C@@H]3CCCN3C)nc3c2CCC2(CCCc4c(C)cc(C)cc42)O3)C[C@@H]1CC#N (single isomer, unassigned) [Example 11a]	46.7 nM	–	1800 nM
C=CC(=O)N1CCN(c2nc(OC[C@@H]3CCCN3C)nc3c2CCC2(CCCc4c(C)cc(C)cc42)O3)C[C@@H]1CC#N (single isomer, unassigned) [Example 11b]	661 nM	–	28600 nM
C=CC(=O)N1CCN(c2nc(OCC3(CN(C)C)CC3)nc3c2CCC2(CCCc4ccccc42)O3)C[C@@H]1CC#N (single isomer, unassigned) [Example 12a]	99.7 nM	–	1330 nM
C=CC(=O)N1CCN(c2nc(OCC3(CN(C)C)CC3)nc3c2CCC2(CCCc4ccccc42)O3)C[C@@H]1CC#N (single isomer, unassigned) [Example 12b]	728 nM	–	5620 nM
C=CC(=O)N1CCN(c2nc(OC[C@@H]3CCCN3CC)nc3c2CCC2(CCCc4ccccc42)O3)C[C@@H]1CC#N (single isomer, unassigned) [Example 15a]	43.4 nM	–	638 nM
C=CC(=O)N1CCN(c2nc(OC[C@@H]3CCCN3CC)nc3c2CCC2(CCCc4ccccc42)O3)C[C@@H]1CC#N (single isomer, unassigned) [Example 15b]	84 nM	–	1810 nM
C=CC(=O)N1CCN(c2nc(OC[C@@H]3CC(F)(F)CN3C)nc3c2CCC2(CCCc4ccccc42)O3)C[C@@H]1CC#N (single isomer, unassigned) [Example 16a]	18.9 nM	–	246 nM
C=CC(=O)N1CCN(c2nc(OC[C@@H]3CC(F)(F)CN3C)nc3c2CCC2(CCCc4ccccc42)O3)C[C@@H]1CC#N (single isomer, unassigned) [Example 16b]	109 nM	–	1650 nM
C=C(F)C(=O)N1CCN(c2nc(OC[C@@H]3CCCN3C)nc3c2CCC2(CCCc4ccccc42)O3)C[C@@H]1CC#N (single isomer, unassigned) [Example 17a]	823 nM	6680 nM	–
